# Experimental data published in PubChem BioAssay AID1963974 (Molecular Pharmacology Branch, DTP, NCI, 2024).
# Test system: 648629-189-R-J1-PDC spheroids with HUVEC/MSC, viability
# Test: Anticancer human tumor 648629-189-R-J1-PDC patient-derived bladder carcinoma cell line growth inhibition [PI3K]
# Settings: for IC50: curve of first compound; for viability, T/C: stronger effect = lower value
# Summary of the method: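 Targeted small molecules plus PI3K inhibitors, half-log dose series from Cmax (default top 10 microM), were applied to heterotypic spheroids of cancer cells with HUVEC and MSCs. Viability indicated growth inhibition.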
# [1] = second compound 0.0316 µM, first compound 0.0316 µM
# [2] = second compound 0.0316 µM, first compound 0.1 µM
# [3] = second compound 0.1 µM, first compound 0.0316 µM
# [4] = second compound 0.1 µM, first compound 0.1 µM
# [5] = second compound 0.316 µM, first compound 0.0316 µM
# [6] = second compound 0.316 µM, first compound 0.1 µM
# [7] = second compound 1 µM, first compound 0.0316 µM
# [8] = second compound 1 µM, first compound 0.1 µM
# [9] = second compound 3.16 µM, first compound 0.0316 µM
# [10] = second compound 3.16 µM, first compound 0.1 µM
# [11] = second compound 10 µM, first compound 0.0316 µM
# [12] = second compound 10 µM, first compound 0.1 µM
# 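Further: spheroids exposed to agents for seven days before reading.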
# 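Wherever viability, T/C is given: percent of vehicle control luminescence where 100% = DMSO treated spheroids.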
smiles,measurement,setting,value
Cn1ncnc1[C@H]1c2n[nH]c(=O)c3cc(F)cc(c23)N[C@@H]1c1ccc(F)cc1 + CC(Nc1ncnc2nc[nH]c12)c1cc2cccc(Cl)c2c(=O)n1-c1ccccc1,IC50,second compound 0.0316 µM,> 100 nM
same,IC50,second compound 0.1 µM,> 100 nM
same,IC50,second compound 0.316 µM,> 100 nM
same,IC50,second compound 1 µM,> 100 nM
same,IC50,second compound 3.16 µM,> 100 nM
same,IC50,second compound 10 µM,> 100 nM
same,"viability, T/C","second compound 0.0316 µM, first compound 0.000316 µM",99.8%
same,"viability, T/C","second compound 0.0316 µM, first compound 0.001 µM",100%
same,"viability, T/C","second compound 0.0316 µM, first compound 0.00316 µM",99.8%
same,"viability, T/C","second compound 0.0316 µM, first compound 0.01 µM",88.1%
same,"viability, T/C",[1],67.2%
same,"viability, T/C",[2],71%
same,"viability, T/C","second compound 0.1 µM, first compound 0.000316 µM",97.8%
same,"viability, T/C","second compound 0.1 µM, first compound 0.001 µM",101%
same,"viability, T/C","second compound 0.1 µM, first compound 0.00316 µM",98.2%
same,"viability, T/C","second compound 0.1 µM, first compound 0.01 µM",81.2%
same,"viability, T/C",[3],93.2%
same,"viability, T/C",[4],66.7%
same,"viability, T/C","second compound 0.316 µM, first compound 0.000316 µM",94.2%
same,"viability, T/C","second compound 0.316 µM, first compound 0.001 µM",98.2%
same,"viability, T/C","second compound 0.316 µM, first compound 0.00316 µM",91.9%
same,"viability, T/C","second compound 0.316 µM, first compound 0.01 µM",92%
same,"viability, T/C",[5],85.4%
same,"viability, T/C",[6],59.1%
same,"viability, T/C","second compound 1 µM, first compound 0.000316 µM",111%
same,"viability, T/C","second compound 1 µM, first compound 0.001 µM",100%
same,"viability, T/C","second compound 1 µM, first compound 0.00316 µM",97.8%
same,"viability, T/C","second compound 1 µM, first compound 0.01 µM",82.3%
same,"viability, T/C",[7],74.4%
same,"viability, T/C",[8],65.1%
same,"viability, T/C","second compound 3.16 µM, first compound 0.000316 µM",96.4%
same,"viability, T/C","second compound 3.16 µM, first compound 0.001 µM",89.6%
same,"viability, T/C","second compound 3.16 µM, first compound 0.00316 µM",88.7%
same,"viability, T/C","second compound 3.16 µM, first compound 0.01 µM",86.5%
same,"viability, T/C",[9],81.6%
same,"viability, T/C",[10],58.9%
same,"viability, T/C","second compound 10 µM, first compound 0.000316 µM",90.4%
same,"viability, T/C","second compound 10 µM, first compound 0.001 µM",86.7%
same,"viability, T/C","second compound 10 µM, first compound 0.00316 µM",80.7%
same,"viability, T/C","second compound 10 µM, first compound 0.01 µM",80.7%
same,"viability, T/C",[11],71.1%
same,"viability, T/C",[12],55.9%
Cn1ncc(Cl)c1-c1cc(C(=O)NC(CN)Cc2cccc(F)c2)sc1Cl (centres undefined) + CC(Nc1ncnc2nc[nH]c12)c1cc2cccc(Cl)c2c(=O)n1-c1ccccc1,IC50,second compound 0.0316 µM,991 nM
same,IC50,second compound 0.1 µM,769 nM
same,IC50,second compound 0.316 µM,708 nM
same,IC50,second compound 1 µM,709 nM
same,IC50,second compound 3.16 µM,646 nM
same,IC50,second compound 10 µM,479 nM
same,"viability, T/C",[1],129%
same,"viability, T/C",[2],90.4%
same,"viability, T/C","second compound 0.0316 µM, first compound 0.316 µM",68.3%
same,"viability, T/C","second compound 0.0316 µM, first compound 1 µM",45.8%
same,"viability, T/C","second compound 0.0316 µM, first compound 3.16 µM",26.5%
same,"viability, T/C","second compound 0.0316 µM, first compound 10 µM",10.4%
same,"viability, T/C",[3],97.8%
same,"viability, T/C",[4],87.2%
same,"viability, T/C","second compound 0.1 µM, first compound 0.316 µM",71.8%
same,"viability, T/C","second compound 0.1 µM, first compound 1 µM",39.9%
same,"viability, T/C","second compound 0.1 µM, first compound 3.16 µM",27.5%
same,"viability, T/C","second compound 0.1 µM, first compound 10 µM",9.37%
same,"viability, T/C",[5],93.9%
same,"viability, T/C",[6],103%
same,"viability, T/C","second compound 0.316 µM, first compound 0.316 µM",62.8%
same,"viability, T/C","second compound 0.316 µM, first compound 1 µM",42.6%
same,"viability, T/C","second compound 0.316 µM, first compound 3.16 µM",23.8%
same,"viability, T/C","second compound 0.316 µM, first compound 10 µM",7.95%
same,"viability, T/C",[7],108%
same,"viability, T/C",[8],92.2%
same,"viability, T/C","second compound 1 µM, first compound 0.316 µM",62.2%
same,"viability, T/C","second compound 1 µM, first compound 1 µM",42.9%
same,"viability, T/C","second compound 1 µM, first compound 3.16 µM",27.2%
same,"viability, T/C","second compound 1 µM, first compound 10 µM",8.92%
same,"viability, T/C",[9],97.7%
same,"viability, T/C",[10],93.8%
same,"viability, T/C","second compound 3.16 µM, first compound 0.316 µM",64.8%
same,"viability, T/C","second compound 3.16 µM, first compound 1 µM",36.7%
same,"viability, T/C","second compound 3.16 µM, first compound 3.16 µM",26.5%
same,"viability, T/C","second compound 3.16 µM, first compound 10 µM",7.12%
same,"viability, T/C",[11],99.7%
same,"viability, T/C",[12],78.2%
same,"viability, T/C","second compound 10 µM, first compound 0.316 µM",56.9%
same,"viability, T/C","second compound 10 µM, first compound 1 µM",37.2%
same,"viability, T/C","second compound 10 µM, first compound 3.16 µM",21.3%
same,"viability, T/C","second compound 10 µM, first compound 10 µM",6.29%
